The structures appear in SMILES notation.

What all share (format): in vivo
Assay [1] has as its system Diabrotica balteata (Corn root worm). In words: Biological comparison a): insecticidal activity against Diabrotica balteata, maize sprouts. The following applies: 96 h, 4 days after infestation. An excerpt:
(§1) The pesticidal/insecticidal properties of the compounds according to embodiments 1 or 2 can be illustrated via the following tests: Spodoptera littoralis (Egyptian cotton leaf worm) • Cotton leaf discs were placed onto agar in 24-well microtiter plates and sprayed with aqueous test solutions prepared from 10'000 ppm DMSO stock solutions. After drying the leaf discs were infested with five L1 larvae. […] Plutella xylostella (Diamond back moth): 24-well microtiter plates with artificial diet were treated with aqueous test solutions prepared from 10'000 ppm DMSO stock solutions by pipetting. After drying, the plates were infested with L2 larvae (10 to 15 per well). The samples were assessed for mortality and growth inhibition in comparison to untreated samples 5 days after infestation. […] Diabrotica balteata, (Corn root worm) • Maize sprouts placed onto an agar layer in 24-well microtiter plates were treated with aqueous test solutions prepared from 10'000 ppm DMSO stock solutions by spraying. After drying, the plates were infested with L2 larvae (6 to 10 per well). […] Thrips tabaci (Onion thrips): Sunflower leaf discs were placed on agar in 24-well microtiter plates and sprayed with aqueous test solutions prepared from 10'000 ppm DMSO stock solutions. After drying the leaf discs were infested with a thrips population of mixed ages. The samples were assessed for mortality 6 days after infestation. […] Tetranychus urticae (Two-spotted spider mite): Bean leaf discs on agar in 24-well microtiter plates were sprayed with aqueous test solutions prepared from 10'000 ppm DMSO stock solutions. After drying the leaf discs were infested with a mite population of mixed ages. The samples were assessed for mortality on mixed population (mobile stages) 8 days after infestation. […] Euschistus heros (Neotropical Brown Stink Bug): • Two weeks old soybean plants were sprayed in a turn table spray chamber with the diluted spray solutions. After drying 2 soybean seeds were added and plants were infested with 10 N2 nymphs of the neotropical brown stink bug Euschistus heros in plastic test boxes. The samples were assessed for mortality in comparison to untreated samples 5 days after infestation. • The following compounds gave at least 80% mortality of Euschistus heros at an application rate of 12.5 ppm: Compounds 3 , 4 , 8 , 39 , 43 , 44 , 46 , 75 , 76 , 77 , 78 , 79 , 80 , 81 , 82 , 88 , 90 , 93 and 95 . Myzus persicae (Green peach aphid): Sunflower leaf discs were placed on agar in a 24-well microtiter plate and sprayed with test solutions at an application rate of 200 ppm. After drying, the leaf discs were infested with an aphid population of mixed ages. After an incubation period of 6 DAT, samples were checked for mortality. The following compounds gave at least 50% mortality of Myzus persicae: Compounds 3 , 4 , 8 , 43 , 44 , 75 , 76 , 77 , 80 , 81 , 90 and 92 . Myzus persicae (Green peach aphid): • Test compounds were applied by pipette into 24 well plates and mixed with Sucrose solution. Application rate: 12.5ppm. The plates were closed with a stretched parafilm. A plastic stencil with 24 holes is placed onto the plate and infested pea seedlings were placed directly on the Parafilm. The infested plate is closed with a gel blotting paper and another plastic stencil and then turned upside down. […]

Assay [2] relates to Spodoptera littoralis (Egyptian cotton leaf worm). In words: Biological comparison c): insecticidal activity against Spodoptera littoralis, larvicide L-3, feeding/contact, soybean plants. As to conditions: 120 h, 5 days after infestation, L3 larvae; for mortality at 0.05 ppm: Concentration 0.05 ppm; for mortality at 0.2 ppm: Concentration 0.2 ppm; for mortality at 0.8 ppm: Concentration 0.8 ppm; for mortality at 3 ppm: Concentration 3 ppm; for mortality at 12.5 ppm: Concentration 12.5 ppm. An excerpt: c) Insecticidal activity against Spodoptera littoralis (Egyptian cotton leaf worm): (larvicide L-3, feeding/contact) Soybean plants are sprayed with diluted test solutions in an application chamber. The plants (2 replicates) are infested with 10 L3 larvae 1 day after treatment. Samples are checked 5 days after infestation for mortality, feeding behavior, and growth regulation.

The test system of assay [3] is Diabrotica balteata, (Corn root worm). In words: Diabrotica balteata maize sprout spray test, L2 larvae. The following applies: 96 h, application rate of 200 ppm, 4 days after infestation, L2 larvae, read-out: mortality. The method, boiled down:
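Test solutions in water, made from DMSO stock solutions at 10'000 ppm, were sprayed onto maize sprouts resting on an agar layer in 24-well microtiter plates. Once the treated sprouts had dried, each well was infested with 6 to 10 second-instar (L2) Diabrotica balteata corn rootworm larvae, and mortality was then scored as percent.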

For assay [4], the system named is Myzus persicae (Green peach aphid). In words: Myzus persicae sucrose solution / Parafilm feeding test. The following applies: 120 h, Application rate: 12.5ppm, sucrose solution, 5 days after infestation, read-out: mortality of Myzus persicae.
Assay [5] has the same test system. Description: Myzus persicae sunflower leaf disc spray test. The following applies: foliar, 144 h, application rate of 200 ppm, leaf disc spray, 6 DAT, read-out: mortality of Myzus persicae.
From the text: as §1

The subject of assay [6] is Spodoptera littoralis (Egyptian cotton leaf worm). In words: Spodoptera littoralis cotton leaf disc spray test, L1 larvae. As to conditions: foliar, 72 h, application rate of 200 ppm, 3 days after infestation, L1 larvae, read-out: mortality. The method, boiled down: (§2)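 Leaf discs on agar sprayed with aqueous dilutions of 10'000 ppm DMSO stocks, then infested after drying: Myzus persicae (sunflower, 200 ppm, mixed ages), mortality at 6 DAT; Thrips tabaci (sunflower, mixed ages), mortality at 6 days; Tetranychus urticae (bean, mixed ages), mobile-stage mortality at 8 days; Spodoptera littoralis (cotton), five L1 larvae per disc.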

For assay [7], the system named is Tetranychus urticae (Two-spotted spider mite). Description: Tetranychus urticae bean leaf disc spray test. The following applies: foliar, 192 h, application rate of 200 ppm, mortality on mixed population (mobile stages) 8 days after infestation. A digest of the protocol:
as §2

Assay [8] deals with Thrips tabaci (Onion thrips). Description: Thrips tabaci sunflower leaf disc spray test. The following applies: foliar, 144 h, application rate of 200 ppm, mortality 6 days after infestation, mixed ages. The method, boiled down:
as §2

The test system of assay [9] is Euschistus heros (Neotropical Brown Stink Bug). In words: Euschistus heros soybean plant spray test, N2 nymphs. The following applies: 120 h, application rate of 12.5 ppm, 5 days after infestation, N2 nymphs, read-out: mortality of Euschistus heros.
The test system of assay [10] is Plutella xylostella (Diamond back moth). In words: Plutella xylostella artificial diet test, L2 larvae. The following applies: 120 h, application rate of 200 ppm, mortality and growth inhibition 5 days after infestation. A digest of the protocol:
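Artificial diet in 24-well microtiter plates was treated by pipetting with aqueous test solutions made from 10'000 ppm DMSO stock solutions. Once dry, each well received 10 to 15 second-instar (L2) Plutella xylostella larvae. Mortality and growth inhibition were scored against untreated samples 5 days after infestation.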

`Cn1nc(C(F)(F)C(F)(F)F)c(C(F)(F)F)c1-n1cc(-c2ccc(Cl)c(C(=O)NC3(C#N)CC3)c2)nn1` [Compound A, reference compound]: in assay [1] (Concentration 0.195 ppm), the mortality at 0.195 ppm is 0%. In assay [1] (Concentration 0.781 ppm), this compound gave a mortality at 0.781 ppm of 0%. The mortality at 3.12 ppm in assay [1] (Concentration 3.12 ppm) worked out at 100%. In [1] (Concentration 12.5 ppm), the mortality at 12.5 ppm is 100%. This compound returned a mortality at 50 ppm in assay [1] (Concentration 50 ppm) of 100%. Also, in [2], the mortality at 0.05 ppm was found to be 0%, the mortality at 0.2 ppm was 0%, the mortality at 0.8 ppm is 0% and the mortality at 3 ppm turned out to be 60%. For the same compound, in [2], the mortality at 12.5 ppm worked out at 100%.

In the case of `Cn1nc(C(F)(F)C(F)(F)F)c(C(F)(F)F)c1-c1cc(-c2ccc(Cl)c(C(=O)NC3(C#N)CC3)c2)sn1` [Compound 44, 2-chloro-N-(1-cyanocyclopropyl)-5-[3-[2-methyl-5-(1,1,2,2,2-pentafluoroethyl)-4-(trifluoromethyl)pyrazol-3-yl]isothiazol-5-yl]benzamide], the mortality at 200 ppm in assay [3] was ≥ 80%; in assay [5] it was ≥ 50%; in assay [6], ≥ 80%. Also, the values for the mortality at 12.5 ppm in [4], in assay [2] and in [9] were ≥ 80%, 100% and ≥ 80%, respectively. Further, the pest or weed control at 200 ppm in [7], in [8] and in assay [10] was ≥ 80% each time. The same compound had a mortality at 0.05 ppm in [2] of 0%. Moreover, in [2], the mortality at 0.2 ppm is 0%. The compound also gave a mortality at 0.8 ppm in [2] of 50%. The same compound gave a mortality at 3 ppm in assay [2] of 95%.

(Values after patent EP3325465B1, “PESTICIDALLY ACTIVE PYRAZOLE DERIVATIVES” (Syngenta Participations AG, priority 2015, dated 2017).)
